Reference: patent US20250101052A1, “COMPOUND FOR EGFR KINASE INHIBITOR, COMPOSITION, AND USE THEREOF” (INNOVATION INSTITUTE FOR ARTIFICIAL INTELLIGENCE IN …, priority 2021, published 2025)
Like-named read-outs stand apart in the source and are kept apart here.

How the values were obtained:
[1] = system: BaF3-EGFR^del19/T790M/C797S cells; experiment: BaF3 cell proliferation inhibition experiment (CCK-8); assay type: cell-based; details: Ba/F3 EGFR-Del19/T790M/C797S, read-out: BaF3-EGFR^del19 /T790M/C797S (IC50 nM)
Method: (§1) A. Cell line: BaF3 cells with stable overexpression of wild-type genes are named BaF3-EGFR^WT, and BaF3 cells with stable overexpression of EGFR^L858R/T790M/C797S EGFR^del19/T790M/C797S EGFR^L858R/C797S and EGFR^del19/C797S mutant genes are named BaF3-EGFR^L858R/T790M/C797S BaF3-EGFR^del19/T790M/C797S BaF3-EGFR^L858R/C797S and BaF3-EGFR^del19/C797S cells, respectively. Mediums:
(§2) a) The medium was preheated in a 37° C. water bath.
(§3) b) The cryopreservation tube was taken from the liquid nitrogen tank, quickly placed in a 37° C. water bath, and melted completely within 1 minute.
(§4) c) The cell suspension was transferred to a 15 mL centrifuge tube containing a 10 mL medium and centrifuged at 1000 rpm for 4 minutes.
(§5) d) The supernatant was discarded, the cells were resuspended in a 1 mL medium and transferred to a […] culture dish containing a 10 mL medium, 20% serum and 50 ng/mL EGF were administered to the first-generation medium, and culture was conducted in a 37° C. and 5% CO2 incubator.
(§6) b) The cells in the culture dish were blown evenly with a 5 mL pipette, and 500 μL of the cells were pipetted out to be inoculated into a new […] culture dish and cultured in a 37° C. and 5% CO2 incubator.
(§7) a) The compound to be tested (10 mM stock solution) was diluted with 100% DMSO to 1 mM, and diluted with a culture solution in a 24-well plate to prepare of a working solution of 2 μM concentration.
(§8) b) The 2 μM working solution was diluted with a triple dilution method to obtain working solutions with approximate concentrations of 2 μM, 600 nM, 200 nM, 60 nM, and 20 nM.
(§9) a) The cells at the logarithmic growth phase were centrifuged at 1000 rpm for 4 minutes, resuspended with a medium (containing 10% serum and 50 ng/mL EGF), and counted.
(§10) b) The cells were inoculated into a 96-well plate with a cell density of 4000 cells/well, and placed in a 37° C. and 5% CO2 incubator for culture for 12 hours.
(§11) a) The prepared compound was added to a 96-well plate, with 100 μL per well. The final concentrations were 1 μM, 300 nM, 100 nM, 30 nM, 10 nM, and 0 nM, and the final concentration of DMSO was 0.2%. A medium served as a blank control.
(§12) b) The cells were placed in 37° C. and 5% CO2 incubator for culture for 72 hours.
(§13) (5) Cell Viability Testing
(§14) a) The 96-well cell culture plate was taken out, and 20 μL of a CCK-8 reagent (Cell Counting Kit-8, Topscience, Catalog No. C0005) was added in the dark.
(§15) b) Mixing well was conducted on a horizontal shaking table at a room temperature at 100 rpm for 5 minutes.
(§16) c) The culture plate was placed in a 37° C. constant-temperature incubator for incubation.
(§17) The data was analyzed using GraphPad Prism 8.0 software to obtain a fitted curve of activity of the compounds. The IC50 of the compounds was fitted from nonlinear regression equation.

[2] = system: BaF3-EGFR^WT cells; experiment: as above; assay type: cell-based; details: Mus musculus, read-out: BaF3-EGFR^WT (IC50 nM)
Method: as §1, §2, §3, §4, §5, §6, §7, §8, §9, §10, §11, §12, §13, §14, §15, §16, §17

[3] = system: Ba/F3-EGFR^L858R/T790M/C797S nude mouse transplantation tumors; experiment: In-vivo efficacy in Ba/F3-EGFR^L858R/T790M/C797S xenograft (CDX); set-up: species or system BALB/c nude mice; details: 13 days
Method: In-vivo efficacy: The compounds of the present invention have excellent in-vivo anti-tumor efficacy and are dose-dependent
In-vivo efficacy experiments were conducted on BALB/c nude mice subcutaneously implanted with Ba/F3-EGFR^L858R/T790M/C797S derived xenograft (CDX). BALB/c nude mice, female, 6-8 weeks old, weighing approximately 18-22 grams, were raised in an SPF-level environment with separate ventilation for each cage (5 mice per cage). All cages, beddings, and water were disinfected before use. All the animals were free to access standard certified commercial laboratory diets. A total of 48 mice were purchased from Beijing Vital River for research. Each mouse was subcutaneously implanted with […] in the right axilla for tumor growth. The experiment began when the average tumor volume reached about 70 cubic millimeters. The experimental compounds were for oral administration daily, with compound 24 (45 mg/kg, 75 mg/kg respectively) and compound 51 (100 mg/kg) administered continuously for 13 days.

[4] = system: A431 cells; experiment: A431 cell proliferation inhibition (SRB); assay type: cell-based; details: Homo sapiens, A-431, wild-type EGFR, 72 hours
Method: A431 cell proliferation inhibition: The compounds of the present invention have good selectivity to wild-type EGFR
as §2, §3, §4, §5, §6, §7, §8, §9, §10, §11, §12, §13
a) The cell supernatant was discarded, rinsed once with 1×PBS, and fixed with 10% trichloroacetic acid for 1 hour. The trichloroacetic acid was discarded, excess trichloroacetic acid was washed off with tap water, and the 96-well plate was dried in a 60° C. oven.
b) 70 μL of an SRB stain was added to each well of the dry 96-well plate for staining at a room temperature for 30 minutes. Excess SRB stain was washed off with 1% glacial acetic acid, and the 96-well plate was dried in a 60° C. oven.
c) SRB was dissolved with 100 μL of 10 mM Tris-base solution. The absorbance was detected at 540 nm ultraviolet absorption using the microplate reader. The data was analyzed.
as §17

IC50 ([1]; cell proliferation, 72 hours)	IC50 ([2]; BaF3, cell proliferation, 72 hours)	SMILES	IC50 ([1]; 72 h)	IC50 ([2]; BaF3, 72 h)	TGI % ([3]; 45 mg/kg/day oral)	TGI % ([3]; 75 mg/kg/day oral)	IC50 [4]	TGI % ([3]; 100 mg/kg/day oral)
		CCc1cc(Nc2ncc(Cl)c(Nc3ccc(C)c(C)c3P(C)(C)=O)n2)c(OC)cc1N1CC2(CCN(C)CC2)C1 [Compound 24, (6-((5-Chloro-2-((5-ethyl-2-methoxy-4-(7-methyl-2,7-diazaspiro[3.5]non-2-yl)phenyl)amino)pyrimidin-4-yl)amino)-2,3-dimethylphenyl)dimethylphosphine oxide]	128 nM	5770 nM	84.74%	99.06%	> 1000 nM	
66.3 nM	1570 nM	CCc1cc(Nc2ncc(Cl)c(Nc3ccc(C)c(C)c3P(C)(C)=O)n2)c(OC)cc1N1CCC(N2CCN(C)CC2)CC1 [Comparative Compound A, reference compound]					207 nM	
		CCc1cc(Nc2ncc(Cl)c(Nc3ccc(C)c(C)c3P(C)(C)=O)n2)c(OC)cc1N1CCC2(CC1)CC(N(C)C)C2 [Compound 6, (6-((5-chloro-2-((4-(2-(dimethylamino)-7-azaspiro[3.5]nonan-7-yl)-5-ethyl-2-methoxyphenyl)amino)pyrimidin-4-yl)amino)-2,3-dimethylphenyl)dimethylphosphine oxide]					> 1000 nM	
		CCc1cc(Nc2ncc(Cl)c(Nc3ccc(C)c(C)c3P(C)(C)=O)n2)c(OC)cc1N1CCC(N2C[C@H]3CC[C@@H](C2)N3C)CC1 [Compound 51, (6-((5-chloro-2-((5-ethyl-2-methoxy-4-(4-((1R,5S)-8-methyl-3,8-diazabicyclo[3.2.1]octan-3-yl)piperidin-1-yl)phenyl)amino)pyrimidin-4-yl)amino)-2,3-dimethylphenyl)dimethylphosphine oxide]	29.9 nM	1180 nM			745 nM	83.07%
